# Compound: C=CCn1c(=O)c2cnc(Nc3ccc(N4CCN(C)CC4)cc3)nc2n1-c1cccc(C(C)(C)O)n1 [Adavosertib] + CS(=O)(=O)CCNCc1ccc(-c2ccc3ncnc(Nc4ccc(OCc5cccc(F)c5)c(Cl)c4)c3c2)o1 [Lapatinib] (partner 2 µM)
# Assay: relative viability (nuclei count vs DMSO), 5 days (fraction); higher = more cells survive
# Conditions: first compound 0.01 µM
# How it was run: (§1)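 Lung cancer cell lines were seeded in 1536-well plates and dosed by pin tool the next day, with either a single drug or a fixed anchor-drug dose combined with five library-drug doses (not always all listed) spaced in √10 steps. Five days later, one step fixed the cells and stained their nuclei (final 0.05% Triton X-100, 1% formaldehyde, 1 ug/ml Hoechst), and nuclei were counted on 4× images. Relative viability is the nuclei count in treated wells divided by the count in vehicle wells, and each value is the median of duplicate plates.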
row,Cell Line,relative viability
1,NCI-H520,0.923
2,NCI-H596,0.995
3,NCI-H647,1.23
4,NCI-H650,0.856
5,NCI-H661,0.542
6,NCI-H727,0.872
7,NCI-H838,0.975
8,NCI-H1355,0.955
9,NCI-H1437,0.83
10,NCI-H1563,1.02
11,NCI-H1651,0.956
12,NCI-H1666,0.618
13,NCI-H1734,1.07
14,NCI-H1755,1.12
15,NCI-H1792,0.824
16,NCI-H1915,0.984
17,NCI-H1944,0.765
18,NCI-H1975,0.878

row,Cell Line,relative viability
1,NCI-H1993,0.798
2,NCI-H2009,0.975
3,NCI-H2023,0.787
4,NCI-H2085,0.743
5,NCI-H2087,0.951
6,NCI-H2126,0.736
7,NCI-H2228,1.39
8,NCI-H2347,0.889
9,NCI-H2405,1.09
10,NCI-H3122,1.01
11,PC-3 [JPC-3],0.445
12,PC-14,0.344
13,RERF-LC-KJ,0.915
14,SK-LU-1,0.857
15,SK-MES-1,0.45
16,SW 1573,1.22
17,UMC-11,0.939

# Same assay, conditions: first compound 0.03162 µM
row,Cell Line,relative viability
1,NCI-H520,0.822
2,NCI-H596,1.12
3,NCI-H647,1.08
4,NCI-H650,1.28
5,NCI-H661,0.601
6,NCI-H727,0.859
7,NCI-H838,0.921
8,NCI-H1355,1.02
9,NCI-H1437,0.778
10,NCI-H1563,1.02
11,NCI-H1651,0.715
12,NCI-H1666,0.667
13,NCI-H1734,1.07
14,NCI-H1755,1.02
15,NCI-H1792,0.931
16,NCI-H1915,0.923
17,NCI-H1944,0.709
18,NCI-H1975,0.805

row,Cell Line,relative viability
1,NCI-H1993,0.865
2,NCI-H2009,0.99
3,NCI-H2023,0.735
4,NCI-H2085,0.813
5,NCI-H2087,1.21
6,NCI-H2126,0.781
7,NCI-H2228,1.13
8,NCI-H2347,0.912
9,NCI-H2405,1.13
10,NCI-H3122,0.924
11,PC-3 [JPC-3],0.418
12,PC-14,0.319
13,RERF-LC-KJ,0.826
14,SK-LU-1,0.834
15,SK-MES-1,0.43
16,SW 1573,1.36
17,UMC-11,0.999

# Same assay, conditions: first compound 0.1 µM
row,Cell Line,relative viability
1,NCI-H520,0.802
2,NCI-H596,1.01
3,NCI-H647,1.08
4,NCI-H650,1.1
5,NCI-H661,0.514
6,NCI-H727,0.852
7,NCI-H838,0.976
8,NCI-H1355,0.966
9,NCI-H1437,0.831
10,NCI-H1563,0.969
11,NCI-H1651,0.752
12,NCI-H1666,0.65
13,NCI-H1734,1.07
14,NCI-H1755,1.04
15,NCI-H1792,0.919
16,NCI-H1915,1.02
17,NCI-H1944,0.908
18,NCI-H1975,0.895

row,Cell Line,relative viability
1,NCI-H1993,0.894
2,NCI-H2009,1.05
3,NCI-H2023,0.599
4,NCI-H2085,0.86
5,NCI-H2087,1.15
6,NCI-H2126,0.764
7,NCI-H2228,1.46
8,NCI-H2347,1.13
9,NCI-H2405,1.04
10,NCI-H3122,1.07
11,PC-3 [JPC-3],0.47
12,PC-14,0.297
13,RERF-LC-KJ,0.89
14,SK-LU-1,0.787
15,SK-MES-1,0.476
16,SW 1573,1.14
17,UMC-11,0.851

# Same assay, conditions: first compound 0.3162 µM
row,Cell Line,relative viability
1,NCI-H520,0.858
2,NCI-H596,1
3,NCI-H647,0.727
4,NCI-H650,0.808
5,NCI-H661,0.363
6,NCI-H727,1.02
7,NCI-H838,1.07
8,NCI-H1355,0.948
9,NCI-H1437,0.812
10,NCI-H1563,0.932
11,NCI-H1651,0.682
12,NCI-H1666,0.575
13,NCI-H1734,0.825
14,NCI-H1755,1.09
15,NCI-H1792,0.937
16,NCI-H1915,0.959
17,NCI-H1944,0.783
18,NCI-H1975,0.667

row,Cell Line,relative viability
1,NCI-H1993,0.8
2,NCI-H2009,0.926
3,NCI-H2023,0.344
4,NCI-H2085,0.836
5,NCI-H2087,1.3
6,NCI-H2126,0.829
7,NCI-H2228,0.494
8,NCI-H2347,1.03
9,NCI-H2405,1.11
10,NCI-H3122,1.07
11,PC-3 [JPC-3],0.429
12,PC-14,0.407
13,RERF-LC-KJ,0.825
14,SK-LU-1,0.281
15,SK-MES-1,0.389
16,SW 1573,1.08
17,UMC-11,1.28

# Compound: C=CCn1c(=O)c2cnc(Nc3ccc(N4CCN(C)CC4)cc3)nc2n1-c1cccc(C(C)(C)O)n1 [Adavosertib] + C[C@@H](Oc1cc(-c2cnn(C3CCNCC3)c2)cnc1N)c1c(Cl)ccc(F)c1Cl [Crizotinib] (partner 1 µM)
# Assay: as above
# Conditions: first compound 0.01 µM
# How it was run: as §1
row,Cell Line,relative viability
1,NCI-H520,0.925
2,NCI-H596,1.04
3,NCI-H647,1.2
4,NCI-H650,0.706
5,NCI-H661,1.08
6,NCI-H727,0.804
7,NCI-H838,0.872
8,NCI-H1355,1.04
9,NCI-H1437,1
10,NCI-H1563,0.837
11,NCI-H1651,0.836
12,NCI-H1666,0.926
13,NCI-H1734,0.817
14,NCI-H1755,0.885
15,NCI-H1792,0.978
16,NCI-H1915,0.941
17,NCI-H1944,1.14
18,NCI-H1975,0.962

row,Cell Line,relative viability
1,NCI-H1993,0.919
2,NCI-H2009,0.995
3,NCI-H2023,0.717
4,NCI-H2085,0.748
5,NCI-H2087,0.911
6,NCI-H2126,1.05
7,NCI-H2228,0.391
8,NCI-H2347,0.72
9,NCI-H2405,0.804
10,NCI-H3122,0.287
11,PC-3 [JPC-3],0.996
12,PC-14,0.91
13,RERF-LC-KJ,0.795
14,SK-LU-1,0.837
15,SK-MES-1,0.92
16,SW 1573,0.797
17,UMC-11,0.63

# Same assay, conditions: first compound 0.03162 µM
row,Cell Line,relative viability
1,NCI-H520,0.83
2,NCI-H596,1.07
3,NCI-H647,1.08
4,NCI-H650,0.648
5,NCI-H661,1.1
6,NCI-H727,0.994
7,NCI-H838,0.847
8,NCI-H1355,0.985
9,NCI-H1437,0.973
10,NCI-H1563,0.942
11,NCI-H1651,0.882
12,NCI-H1666,0.963
13,NCI-H1734,0.772
14,NCI-H1755,0.882
15,NCI-H1792,0.881
16,NCI-H1915,0.812
17,NCI-H1944,1.11
18,NCI-H1975,0.952

row,Cell Line,relative viability
1,NCI-H1993,0.804
2,NCI-H2009,1.05
3,NCI-H2023,0.681
4,NCI-H2085,0.866
5,NCI-H2087,0.96
6,NCI-H2126,1.01
7,NCI-H2228,0.458
8,NCI-H2347,0.778
9,NCI-H2405,0.875
10,NCI-H3122,0.241
11,PC-3 [JPC-3],0.905
12,PC-14,1.02
13,RERF-LC-KJ,0.815
14,SK-LU-1,0.844
15,SK-MES-1,1.02
16,SW 1573,0.879
17,UMC-11,0.588

# Same assay, conditions: first compound 0.1 µM
row,Cell Line,relative viability
1,NCI-H520,0.94
2,NCI-H596,1.11
3,NCI-H647,0.967
4,NCI-H650,0.692
5,NCI-H661,1.13
6,NCI-H727,0.737
7,NCI-H838,0.82
8,NCI-H1355,1.04
9,NCI-H1437,1.04
10,NCI-H1563,0.936
11,NCI-H1651,0.897
12,NCI-H1666,1.01
13,NCI-H1734,0.82
14,NCI-H1755,0.911
15,NCI-H1792,1.05
16,NCI-H1915,0.981
17,NCI-H1944,1.17
18,NCI-H1975,0.904

row,Cell Line,relative viability
1,NCI-H1993,0.874
2,NCI-H2009,1.03
3,NCI-H2023,0.573
4,NCI-H2085,0.946
5,NCI-H2087,1.03
6,NCI-H2126,1.08
7,NCI-H2228,0.615
8,NCI-H2347,0.772
9,NCI-H2405,0.872
10,NCI-H3122,0.294
11,PC-3 [JPC-3],1.06
12,PC-14,1.02
13,RERF-LC-KJ,0.94
14,SK-LU-1,0.553
15,SK-MES-1,0.983
16,SW 1573,1.09
17,UMC-11,0.739

# Same assay, conditions: first compound 0.3162 µM
row,Cell Line,relative viability
1,NCI-H520,0.579
2,NCI-H596,1.03
3,NCI-H647,0.593
4,NCI-H650,0.609
5,NCI-H661,1.04
6,NCI-H727,0.871
7,NCI-H838,0.77
8,NCI-H1355,0.908
9,NCI-H1437,0.922
10,NCI-H1563,0.924
11,NCI-H1651,0.899
12,NCI-H1666,1.05
13,NCI-H1734,0.695
14,NCI-H1755,0.739
15,NCI-H1792,1.05
16,NCI-H1915,1
17,NCI-H1944,1.13
18,NCI-H1975,0.625

row,Cell Line,relative viability
1,NCI-H1993,0.95
2,NCI-H2009,1.04
3,NCI-H2023,0.551
4,NCI-H2085,0.85
5,NCI-H2087,0.896
6,NCI-H2126,1.07
7,NCI-H2228,0.3
8,NCI-H2347,0.699
9,NCI-H2405,0.879
10,NCI-H3122,0.271
11,PC-3 [JPC-3],1
12,PC-14,0.646
13,RERF-LC-KJ,0.925
14,SK-LU-1,0.325
15,SK-MES-1,0.791
16,SW 1573,0.845
17,UMC-11,0.623

# Compound: COc1nc(N)nc2c1ncn2[C@@H]1O[C@H](CO)[C@@H](O)[C@@H]1O [Nelarabine] + COc1cccc2cc(-c3nc([C@H]4CC[C@H](C(=O)O)CC4)n4ncnc(N)c34)[nH]c12 [OSI-027] (partner 0.5 µM)
# Assay: as above
# Conditions: first compound 0.01 µM
# How it was run: as §1
row,Cell Line,relative viability
1,NCI-H520,0.321
2,NCI-H596,0.82
3,NCI-H647,0.481
4,NCI-H650,0.616
5,NCI-H661,0.53
6,NCI-H727,0.565
7,NCI-H838,0.463
8,NCI-H1355,0.481
9,NCI-H1437,1.04
10,NCI-H1563,0.847
11,NCI-H1651,0.761
12,NCI-H1666,0.874
13,NCI-H1734,0.759
14,NCI-H1755,0.647
15,NCI-H1915,0.675
16,NCI-H1944,0.468
